Values of other authors in US10863741B2, “Herbicidal compositions” (HOMS, LLC, priority 2015, dated 2020).

Test system: male rats
Details: chronic exposure

With `C=C(C)[C@H]1CC=C(C)CC1` [d-limonene] as the compound, how does the Tumor incidence read?
Its Tumor incidence is “significant incidence of renal tubular tumors”.
